Source: ChEMBL document CHEMBL3639354, “(EN) 3-sulfonyl-pyrazolo[1,5-a] pyrimidines / antagonists of serotonin 5-HT6 receptors, methods for the production and the use thereof” (2013)

Molecular target: 5-hydroxytryptamine receptor 6 (Homo sapiens, UniProt P50406)
Assay: Functional Assay: Functional assay using 5-HT6 receptors.

Sequence of 5-hydroxytryptamine receptor 6 (P50406 whole entry): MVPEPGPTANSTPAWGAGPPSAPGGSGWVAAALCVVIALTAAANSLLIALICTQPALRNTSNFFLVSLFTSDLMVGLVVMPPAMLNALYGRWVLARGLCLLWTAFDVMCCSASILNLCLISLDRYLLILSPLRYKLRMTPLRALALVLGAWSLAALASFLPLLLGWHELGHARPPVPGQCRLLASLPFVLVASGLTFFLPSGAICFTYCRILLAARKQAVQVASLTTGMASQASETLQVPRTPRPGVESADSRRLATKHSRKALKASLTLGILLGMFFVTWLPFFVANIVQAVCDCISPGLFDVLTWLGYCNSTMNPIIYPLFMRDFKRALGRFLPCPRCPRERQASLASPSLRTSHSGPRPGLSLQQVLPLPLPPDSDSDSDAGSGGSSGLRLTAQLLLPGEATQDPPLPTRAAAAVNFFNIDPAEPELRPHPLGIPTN

**Q.** Which IC50 does the source give for `CSc1nn2c(C)cc(C)nc2c1S(=O)(=O)c1ccc(F)c(Cl)c1` here?
**A.** 0.046 µM
